Patent US9113629B2, “4-amino-6-(4-substituted-phenyl)-picolinates and 6-amino-2-(4-substituted-phenyl)-pyrimidine-4-carboxylates and their use as herbicides” (DOW AGROSCIENCES LLC, priority 2013, dated 2015)
Where two headings read alike, the source gives them in different places.

Legend:
[1] = system: Key Broadleaf Weed and Crop Species; assay: Post-emergent Test II herbicidal activity (Table 5); type: in vivo; conditions: post-emergence, 336 h, 14 days after application; for pest or weed control at 70 g/ha: application rate 70 g ai/ha; for pest or weed control at 140 g/ha: application rate 140 g ai/ha
How it was run: (§1)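 Plants grown in Metro-Mix 360 (pH 6.0–6.8) in a greenhouse (~15 h photoperiod, 23–29 °C day) to first or second true leaf stage, then sprayed with compound in acetone/DMSO/aqueous crop-oil-surfactant carrier at 187 L/ha by track sprayer. Injury visually scored 0–100% versus untreated plants after 14 d.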

[2] = system: Key Grass and Sedge Weeds as well as Grass Crops; assay: Post-emergent Test II herbicidal activity (Table 6); type: in vivo; conditions: post-emergence, 336 h; for pest or weed control at 70 g/ha: 70 g ai/ha; for pest or weed control at 140 g/ha: 140 g ai/ha
How it was run: as §1

[3] = ABUTH: velvetleaf (Abutilon theophrasti), read-out: Visual Growth Reduction (%) 14 Days After Application, ABUTH
[4] = AMARE: redroot pigweed (Amaranthus retroflexus), read-out: Visual Growth Reduction (%) 14 Days After Application, AMARE
[5] = BRSNN: oilseed-rape, canola (Brassica napus), read-out: Visual Growth Reduction (%) 14 Days After Application, BRSNN
[6] = CHEAL: lambsquarters (Chenopodium album), read-out: Visual Growth Reduction (%) 14 Days After Application, CHEAL
[7] = EPHHL: wild poinsettia (Euphorbia heterophylla), read-out: Visual Growth Reduction (%) 14 Days After Application, EPHHL
[8] = HELAN: sunflower (Helianthus annuus), read-out: Visual Growth Reduction (%) 14 Days After Application, HELAN
[9] = VIOTR: wild pansy (Viola tricolor), read-out: Visual Growth Reduction (%) 14 Days After Application, VIOTR
[10] = CYPES: yellow nutsedge (Cyperus esculentus), read-out: Visual Growth Reduction (%) 14 Days After Application, CYPES
[11] = DIGSA: crabgrass (Digitaria sanguinalis), read-out: Visual Growth Reduction (%) 14 Days After Application, DIGSA
[12] = ECHCG: barnyardgrass (Echinochloa crus-galli), read-out: Visual Growth Reduction (%) 14 Days After Application, ECHCG
[13] = ORYSA: rice (Oryza sativa), crop, read-out: Visual Growth Reduction (%) 14 Days After Application, ORYSA
[14] = SETFA: giant foxtail (Setaria faberi), read-out: Visual Growth Reduction (%) 14 Days After Application, SETFA
[15] = SORVU: grain sorghum (Sorghum vulgare), read-out: Visual Growth Reduction (%) 14 Days After Application, SORVU
[16] = TRZSS (wheat, Triticum aestivum), crop, read-out: Visual Growth Reduction (%) 14 Days After Application, TRZSS
[17] = ZEAMX: maize, corn (Zea mays), crop, read-out: Visual Growth Reduction (%) 14 Days After Application, ZEAMX

Structure (SMILES): C#Cc1ccc(-c2nc(C(=O)OC)c(Cl)c(N)c2F)c(F)c1 [Compound 121]
- melting point: 186 to 188 °C
- pest or weed control at 70 g/ha [1, 3]: 85 to 94%
- pest or weed control at 140 g/ha [1, 3]: 85 to 94%
- pest or weed control at 70 g/ha [1, 4]: 0 to 29%
- pest or weed control at 140 g/ha [1, 4]: 0 to 29%
- pest or weed control at 70 g/ha [1, 5]: 85 to 94%
- pest or weed control at 140 g/ha [1, 5]: 95 to 100%
- pest or weed control at 70 g/ha [1, 6]: 75 to 84%
- pest or weed control at 140 g/ha [1, 6]: 95 to 100%
- pest or weed control at 70 g/ha [1, 7]: 45 to 59%
- pest or weed control at 140 g/ha [1, 7]: 95 to 100%
- pest or weed control at 70 g/ha [1, 8]: 85 to 94%
- pest or weed control at 140 g/ha [1, 8]: 95 to 100%
- pest or weed control at 70 g/ha [1, 9]: 0 to 29%
- pest or weed control at 140 g/ha [1, 9]: 0 to 29%
- pest or weed control at 70 g/ha [2, 10]: 45 to 59%
- pest or weed control at 140 g/ha [2, 10]: 45 to 59%
- pest or weed control at 70 g/ha [2, 11]: 0 to 29%
- pest or weed control at 140 g/ha [2, 11]: 0 to 29%
- pest or weed control at 70 g/ha [2, 12]: 0 to 29%
- pest or weed control at 140 g/ha [2, 12]: 0 to 29%
- pest or weed control at 70 g/ha [2, 13]: 0 to 29%
- pest or weed control at 140 g/ha [2, 13]: 0 to 29%
- pest or weed control at 70 g/ha [2, 14]: 0 to 29%
- pest or weed control at 140 g/ha [2, 14]: 0 to 29%
- pest or weed control at 70 g/ha [2, 15]: 45 to 59%
- pest or weed control at 140 g/ha [2, 15]: 60 to 74%
- pest or weed control at 70 g/ha [2, 16]: 0 to 29%
- pest or weed control at 140 g/ha [2, 16]: 0 to 29%
- pest or weed control at 70 g/ha [2, 17]: 95 to 100%
- pest or weed control at 140 g/ha [2, 17]: 95 to 100%

Structure (SMILES): Nc1c(F)c(-c2ccc(I)c(F)c2F)nc(C(=O)O)c1Cl [Compound 141, 4-amino-3-chloro-6-(2,3-difluoro-4-iodophenyl)-5-fluoropicolinic acid]
- melting point: 155 to 157 °C
- pest or weed control at 70 g/ha [1, 3]: 85 to 94%
- pest or weed control at 140 g/ha [1, 3]: 85 to 94%
- pest or weed control at 70 g/ha [1, 4]: 95 to 100%
- pest or weed control at 140 g/ha [1, 4]: 95 to 100%
- pest or weed control at 70 g/ha [1, 5]: 95 to 100%
- pest or weed control at 140 g/ha [1, 5]: 95 to 100%
- pest or weed control at 70 g/ha [1, 6]: 85 to 94%
- pest or weed control at 140 g/ha [1, 6]: 85 to 94%
- pest or weed control at 70 g/ha [1, 7]: 95 to 100%
- pest or weed control at 140 g/ha [1, 7]: 95 to 100%
- pest or weed control at 70 g/ha [1, 8]: 95 to 100%
- pest or weed control at 140 g/ha [1, 8]: 95 to 100%
- pest or weed control at 70 g/ha [1, 9]: 95 to 100%
- pest or weed control at 140 g/ha [1, 9]: 95 to 100%
- pest or weed control at 70 g/ha [2, 10]: 0 to 29%
- pest or weed control at 140 g/ha [2, 10]: 95 to 100%
- pest or weed control at 70 g/ha [2, 11]: 75 to 84%
- pest or weed control at 140 g/ha [2, 11]: 75 to 84%
- pest or weed control at 70 g/ha [2, 12]: 85 to 94%
- pest or weed control at 140 g/ha [2, 12]: 95 to 100%
- pest or weed control at 70 g/ha [2, 13]: 0 to 29%
- pest or weed control at 140 g/ha [2, 13]: 0 to 29%
- pest or weed control at 70 g/ha [2, 14]: 75 to 84%
- pest or weed control at 140 g/ha [2, 14]: 95 to 100%
- pest or weed control at 70 g/ha [2, 15]: 85 to 94%
- pest or weed control at 140 g/ha [2, 15]: 85 to 94%
- pest or weed control at 70 g/ha [2, 16]: 60 to 74%
- pest or weed control at 140 g/ha [2, 16]: 60 to 74%
- pest or weed control at 70 g/ha [2, 17]: 95 to 100%
- pest or weed control at 140 g/ha [2, 17]: 95 to 100%
